Measurements taken from PubChem BioAssay (NCI).
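Five compound concentrations were applied to cells in 96-well plates for 48 hours; endpoints were derived by simple linear interpolation of the resulting dose-response curve. GI50 marks 50% less growth. TGI marks complete inhibition of growth.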

Columns and labels:
Experiment in all cases: inhibition of tumour cell growth, NCI panel, 48 h
[1] = tested on: RXF 393 renal
[2] = tested on: 786-0 renal
[3] = tested on: HCT-116 colon
[4] = tested on: KM12 colon
[5] = tested on: UACC-257 melanoma
[6] = tested on: NCI-H23 lung
[7] = tested on: RPMI-8226 leukemia
[8] = tested on: SN12C renal
[9] = tested on: NCI-H460 lung
[10] = tested on: NCI-H226 lung
[11] = tested on: M14 melanoma
[12] = tested on: SK-MEL-28 melanoma
[13] = tested on: TK-10 renal
[14] = tested on: ACHN renal
[15] = tested on: HL-60(TB) leukemia
[16] = tested on: LOX IMVI melanoma

Compound	TGI [1] [µM]	TGI [2] [µM]	TGI [3] [µM]	TGI [4] [µM]	TGI [5] [µM]	TGI [6] [µM]	TGI [7] [µM]	TGI [8] [µM]	TGI [9] [µM]	TGI [10] [µM]	TGI [11] [µM]	TGI [12] [µM]	TGI [13] [µM]	TGI [14] [µM]	TGI [15] [µM]	TGI [16] [µM]	GI50 [16] [µM]	GI50 [6] [µM]	GI50 [10] [µM]	GI50 [15] [µM]
Oc1cn(-c2ccc(Cl)cc2)nc1-c1n[nH]c(=S)n1-c1ccccc1	36.9	27.1	18.7	31.8	> 100	23.9	> 100	> 100	59.4	59.8	20.4	> 100	58.7	> 100	> 100					
COc1ccc2c(c1)CCCN2CCCCCCCCCCN(CCC(C)C)CCC(C)C		27.5		17.4	32.5	12.7	6.18		24.3	31.3	27.2	27.2	31.9	22.8	9.61	29.1				
Nc1n[nH]c(=O)c2c1c(I)cn2C1OC(CO)C(O)C1O (centres undefined)	3.22		> 100	> 100	13.4	1.96	4.53	66.1	14.1	7.6	18.8	3.47	> 100	> 100	0.348	10.6				
CN(C)CCNC(=O)c1cccc2ccc(-c3ccc(F)cc3)nc12	20.4		13.3	33.4	17.9	17.1	13.5	25.2	10.5	11.6		20.1			7.49	9.88				
COc1ccc(-c2nc3ncccn3c2-c2ccc(SC)cc2)cc1		46	5.15	13.3	> 100	> 100	29.2	> 100	7.87		12.2	> 100		41	6.61	80.4				
Cc1cc(/N=C/c2ccc(F)cc2)n(-c2ccccc2)n1	> 100	> 100	> 100	> 100	> 100	> 100	92.8	> 100	> 100	> 100	> 100	> 100	> 100	> 100	> 100	> 100				
O=C(Nc1ccc([N+](=O)[O-])cc1[N+](=O)[O-])C(=O)C(C(=O)c1ccc2ccccc2c1)C1OC(=O)c2ccccc21 (centres undefined)	27.3		32	40.3	58	26	68.6	54.7	28.9	9.48	30.3	48	61.7	73.2	35	37.6				
Cc1cc2c(cc1C(=O)c1ccc(N)cc1)OCO2		> 100	> 100	> 100	> 100	> 100	> 100	> 100	> 100		> 100		> 100	> 100	> 100					
COc1cc(/C=C/C(=O)Oc2ccc(NC(C)=O)cc2)ccc1C(=O)O/C=C/c1ccccc1	> 100		> 100	> 100	> 100	> 100	> 100	> 100	> 100	> 100		> 100			> 100	> 100				
CN(C)CCCn1cnc2cc(Cl)c(Cl)cc21	> 100	> 100	> 100	> 100	40.7	> 100	> 100	> 100	> 100	> 100	36.1	41.8	> 100	> 100	> 100	> 100				
NCCc1cc(O)c(O)cc1O	97.5	> 69.1	53.3	58.5	62.1	> 69.6	39.3	39.4	80.4	> 100	92.5	97.5	> 100	60.1	65.6	40	19.1	24.2	29.6	12.8
CCOC(=O)c1c2c(n(Cc3ccccc3)c1C)C(=O)C(=O)c1ccccc1-2		1.49	0.692	3.02	0.285	1.07	0.83	0.333	1.5	1.22	0.966	0.601	1.18	1.92	0.0983	0.482				
CCCOC(=O)CNC(=O)OC(C)(C)C	> 100		> 100	> 100	> 100	> 100			> 100	> 100	> 100	> 100	> 100	> 100	> 100	> 100				
N=C1C(=N)c2ccccc2-c2ccccc21.N=C1C(=N)c2ccccc2-c2ccccc21.N=C1C(=N)c2ccccc2-c2ccccc21.[Cl-].[Ru+2]	5.58	28.5	3.2	> 68	3.53	4.93	5.4	2.94	6.29		3.72	3.79		3.29	3.76	7.94				
O=P1(c2ccccc2)Nc2ccccc2SSc2ccccc2N1	34.5		31.4	30.4	30.3	32.7	45.3	32.8	33.8	33.4		34.3			39.6	35.1				
Cc1cccc2c1Sc1ccccc1C2NC(=O)CCN(C)C (centres undefined)	> 100		> 100		> 100	> 100	> 100	> 100	> 100	> 100	> 100	> 100	> 100	> 100	> 100	> 100				
CCc1nc(N)nc(N)c1-c1ccc([N+](C)(C)C)cc1	> 100	> 100	> 100	> 100	> 100	> 100	> 100	> 100	> 100	> 100	> 100	> 100	> 100	> 100	> 100	> 100				
COc1ccc(/C(Cl)=C(\C=O)c2ccc(OC)cc2)cc1	> 100		> 100		> 100	> 100	> 100	> 100	> 100	> 100	> 100		> 100	> 100	80.9	> 100				
COc1ccc(C2=C3SC=c4ccccc4=C3ON=C2c2ccccc2)cc1	> 100	> 100	> 100	> 100	> 100	> 100	> 100	> 100	> 100	> 100	> 100	> 100	> 100	> 100	> 100	> 100				
CC(=O)NNc1nc(-c2ccc([N+](=O)[O-])cc2)c(C#N)c(=O)n1C	> 100	47	94.2	> 100	> 100	> 100	> 100	> 100	> 100		> 100	> 100	72.8	> 100	82.6	41.3				
CN(C)C(=O)/C=C/c1c[nH]c(=O)[nH]c1=O	> 500		> 500	> 500	> 500	> 500	> 316	> 500	> 500	> 500		> 500			> 316	> 500				
